Assay results from US20230000842A1, “METHODS OF TREATING CARTILAGE DISORDERS THROUGH INHIBITION OF CLK AND DYRK” (SAMUMED, LLC, priority 2019, published 2023).

What was measured:
CLK3 kinase = CLK3 kinase (Homo sapiens, UniProt P49761); test: CLK3 kinase activity assay (Z-lyte FRET); assay type: biochemical; conditions: Z-lyte Ser/Thr 18 peptide, 156 μM ATP, 1 h at room temperature;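 also: kinase activity read as coumarin/fluorescein emission ratio by FRET, unphosphorylated peptide as 0% and phosphorylated peptide as 100% control, values from non-linear regression of dose-response curves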
[1] = system: MMP-3 levels in supernatant of chondrocytes stimulated with IL1-β; test: Chondrocyte protection assay compound screening (MMP-3 LANCE Ultra); assay type: cell-based, human; conditions: Homo sapiens, Chondrocyte, IL1-β 10 ng/mL overnight, 11-point curves from 3 μM to 0.05 nM; for Emax: read-out: Maximum % Inhibition
Experimental: Human Chondrocyte Cell Culture: Primary human chondrocytes were purchased from Lonza (Walkersville, Md.) and expanded in Chondrocyte Growth Media (CGM, Lonza). Cells between passage 2 and 5 were used for the experiments.
Chondrocytes were plated at 8,000 cells/well in 40 μL/well Chondrocyte Differentiation Medium (Lonza; 500 mL Basal Medium, 25 mL FBS, 0.5 mL GA-1000, 1 mL R3-IGF, 2.5 mL bFGF, 0.5 mL Transferrin, and 1 mL Insulin). After 2 hours of incubation at 37° C. and 5% CO2, IL1-β (Peprotech, Rocky Hill, N.J.) was added to a final concentration of 10 ng/mL. 11 wells in 1 row were left unstimulated for normalization and calculating EC50 values. Cells were incubated at 37° C. and 5% CO2 overnight. Assay plates are spun, 25 μl of supernatant media was collected using (S2 pipettor, Apricot Designs). Cells were lysed using 10 μL of (Cell Titer-Glo, Promega). Luminescent signal detected using an En Vision Multilabel reader (Perkin Elmer). MMP-3 levels were measured in supernatant. Supernatant diluted 1:7 in DMEM. MMP-3 levels in the supernatant were measured using MMP-3 LANCE Ultra detection kit (Perkin Elmer). Briefly, 5 μL of diluted supernatant was transferred to low-volume 384 well plates using (S2 pipettor, Apricot Designs). A standard curve was prepared using MMP-3 analyte (range […]). 1.7 μL of 8× mix of Eu-labelled anti-MMP-3 antibody and ULight labelled anti-MMP-3 antibody was added to the plates using Mantis Liquid handler (Formulatrix). Plates were incubated overnight at room temperature. LANCE signal was detected using an EnVision Multilabel reader (Perkin Elmer), equipped with TR-FRET using excitation wavelength of 320 nm and two emission wavelengths of 615 nm and 665 nm. Data was analyzed according to the kit protocol, using the ratio of […] and the standard curve values were used to calculate the amount of MMP3 in the […] (in pg/ml). The normalized averages (fold change over IL1-β stimulated) for each compound concentration were calculated. EC50 and maximum % inhibition values were calculated using the dose-response nonlinear regression curve-fit in Dotmatics.

[2] = system: primary human mesenchymal stem cells (hMSCs); test: Chondrogenesis screening using primary human mesenchymal stem cells; assay type: cell-based; conditions: Homo sapiens, Mesenchymal stem cells, hMSC chondrogenesis; maximum activity relative to TGF-β3 (10 ng/mL) positive control; read-out: Max. Activity as % TGF-β3 activity
Procedure, shortened: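 Derived values are EC50 for 50% chondrogenesis, maximal activity and the dose giving it. These come from nodule area in passage 3–6 primary hMSCs, expressed as fold change over the mean of 3 same-plate DMSO wells, 2–3 replicates per concentration. TGF-β3 served as positive control.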

CLK2 kinase = CLK2 kinase (Homo sapiens, UniProt P49760); test: CLK2 kinase activity assay (Z-lyte FRET); assay type: biochemical; conditions: Z-lyte Ser/Thr 6 peptide, 60 μM ATP, 1 h at room temperature;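 also: FRET read-out as coumarin to fluorescein emission ratio, unphosphorylated peptide as 0% and phosphorylated peptide as 100% controls, duplicate reactions, non-linear regression fit of dose-response curves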
[3] = system: Wnt pathway activity (SW480 colon carcinoma cells stably expressing the Sp5-Luc reporter); test: Wnt pathway activity screening assay (Sp5-Luc reporter gene assay); conditions: Homo sapiens, SW480, Table 4; SW480 cells stably expressing Sp5-Luc reporter, 10-point dose-response from 10 μM, 36 to 48 hours
Experimental: The screening assay for Wnt pathway activity is described as follows.
SW480 colon carcinoma cells were transduced with a lentiviral vector expressing luciferase with a human Sp5 promoter consisting of a sequence of eight TCF/LEF binding sites. […] These stably transduced SW480 cells were expanded in cell culture and used for all further screening activities. Each compound was dissolved in DMSO as a 10 mM stock and used to prepare compound source plates. Serial dilution (1:3, 10-point dose-response curves starting from 10 μM) and compound transfer was performed using the ECHO 550 (Labcyte, Sunnyvale, Calif.) into 384-well white solid bottom assay plates (Greiner Bio-One) with appropriate DMSO backfill for a final DMSO concentration of 0.1%. […] Following incubation, 15 μl of BriteLite Plus luminescence reagent (Perkin Elmer) was added to each well of the 384-well assay plates. The plates were placed on an orbital shaker for 2 min and then luminescence was quantified using the Envision (Perkin Elmer) plate reader.

CLK2 kinase, sequence (P49760 whole entry): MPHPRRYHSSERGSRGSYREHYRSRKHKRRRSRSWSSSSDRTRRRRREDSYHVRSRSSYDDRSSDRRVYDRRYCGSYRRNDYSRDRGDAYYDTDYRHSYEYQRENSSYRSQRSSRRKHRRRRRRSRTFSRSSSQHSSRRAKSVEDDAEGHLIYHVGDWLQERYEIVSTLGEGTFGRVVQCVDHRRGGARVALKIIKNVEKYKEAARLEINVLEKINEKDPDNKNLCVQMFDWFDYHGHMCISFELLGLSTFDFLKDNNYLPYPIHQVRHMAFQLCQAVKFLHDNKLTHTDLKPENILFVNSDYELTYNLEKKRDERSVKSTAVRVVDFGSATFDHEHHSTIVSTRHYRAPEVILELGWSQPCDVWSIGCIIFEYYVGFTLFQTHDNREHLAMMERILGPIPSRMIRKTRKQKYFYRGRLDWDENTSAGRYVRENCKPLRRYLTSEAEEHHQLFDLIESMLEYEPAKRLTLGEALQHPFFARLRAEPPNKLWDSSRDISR
CLK3 kinase, sequence (P49761 whole entry): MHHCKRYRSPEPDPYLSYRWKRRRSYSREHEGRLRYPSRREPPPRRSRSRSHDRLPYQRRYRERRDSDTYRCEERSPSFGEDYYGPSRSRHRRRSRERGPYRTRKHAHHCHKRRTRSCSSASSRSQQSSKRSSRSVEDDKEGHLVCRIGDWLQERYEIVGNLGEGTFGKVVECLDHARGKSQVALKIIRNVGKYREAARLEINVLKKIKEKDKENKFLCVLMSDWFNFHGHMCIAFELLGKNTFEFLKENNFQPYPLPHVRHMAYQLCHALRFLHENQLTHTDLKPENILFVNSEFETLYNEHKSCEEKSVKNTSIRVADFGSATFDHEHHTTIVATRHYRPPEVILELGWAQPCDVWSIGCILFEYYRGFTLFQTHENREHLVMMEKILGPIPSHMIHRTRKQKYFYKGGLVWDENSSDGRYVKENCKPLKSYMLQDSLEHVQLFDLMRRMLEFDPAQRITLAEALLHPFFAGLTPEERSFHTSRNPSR

SMILES	EC50 (CLK3 kinase)	EC50 [1]	Emax [1]	Emax [2]	EC50 (CLK2 kinase)	EC50 [3]
CN(C)C1CCN(c2cc(C(=O)Nc3cc4cc(-c5cnn(C)c5)ccc4cn3)ccn2)CC1 [compound 552]	9 nM	697 nM	83.2%			
CN1CCN(c2cc(C(=O)Nc3cc4cc(-c5cnn(C)c5N)ccc4cn3)ccn2)CC1 [compound 566]	34 nM	11.5 nM	43.8%			
CN1CCc2cc(C(=O)Nc3cc4cc(-c5cn(C)nn5)ccc4cn3)ccc2C1 [compound 578]	48 nM	≥ 3000 nM	37.6%			
CN1CCN(c2cc(C(=O)Nc3cc4cc(-c5cncs5)ccc4cn3)ccn2)CC1 [compound 591]	20 nM	423 nM	100%	22.3%		
Cc1nnc(-c2ccc3cnc(NC(=O)c4ccnc(N(C)C5CCN(C)CC5)c4)cc3c2)s1 [compound 595]	19 nM	2.7 nM	86.2%	25.7%		
Fc1cccc(-c2cncc3[nH]c(-c4n[nH]c5ccc(-c6cnccn6)nc45)nc23)c1 [compound 625]		≥ 3000 nM	70.9%		5 nM	> 10000 nM
COc1cccc(-c2cncc3[nH]c(-c4n[nH]c5ccc(-c6cncc(NC(=O)C7CCCCC7)c6)nc45)nc23)c1 [compound 627]		≥ 3000 nM	90.7%		7 nM	> 10000 nM
Fc1ccc(-c2cccc3[nH]c(-c4n[nH]c5ccc(-c6cncnc6)nc45)nc23)cc1 [compound 628]		≥ 3000 nM	54.3%		5 nM	> 10000 nM
O=C(Nc1cncc(-c2ccc3[nH]nc(-c4nc5c(-c6cccc(F)c6)cccc5[nH]4)c3n2)c1)C1CC1 [compound 629]		0.2 nM	70%		9 nM	1080 nM
O=C(Nc1cncc(-c2ccc3[nH]nc(-c4nc5c(-c6ccccn6)ccnc5[nH]4)c3n2)c1)c1ccccc1 [compound 630]		5.1 nM	67%		8 nM	> 10000 nM
O=C(Nc1cncc(-c2ccc3[nH]nc(-c4nc5c(-c6cccs6)cccc5[nH]4)c3n2)c1)C1CC1 [compound 631]		6.7 nM	72%		10 nM	3380 nM
COc1cncc(-c2ccc3[nH]nc(-c4nc5c(N6CCCCC6)ccnc5[nH]4)c3n2)c1 [compound 632]		123 nM	72.2%		3 nM	> 10000 nM
Fc1ccc(-c2cccc3[nH]c(-c4n[nH]c5ncc(-c6cncc(CN7CCCCC7)c6)cc45)cc23)cc1 [compound 634]		46.1 nM	83.8%		8 nM	3660 nM
CN(C)CCNc1cc(F)cc(-c2cccc3[nH]c(-c4n[nH]c5ncc(-c6ccncc6)cc45)cc23)c1 [compound 635]		4 nM	78.5%		10 nM	6070 nM
O=C(Nc1cncc(-c2cc3c(-c4cc5c(-c6cccc(F)c6)ccnc5[nH]4)n[nH]c3cn2)c1)C1CC1 [compound 636]		298 nM	64.5%		9 nM	97 nM
O=C(Nc1cc2cc(-c3cncs3)ccc2cn1)C1(F)CCCCC1 [compound 637]		≥ 3000 nM	39.1%		1900 nM	> 10000 nM
CN1CCC(C(=O)Nc2cc3cc(-c4cnsc4)cnc3cn2)CC1 [compound 639]		≥ 3000 nM	43.7%			> 10000 nM
O=C(Nc1cc2cc(-c3cnco3)cnc2cn1)C1CCNCC1 [compound 641]		35.8 nM	48.4%			> 10000 nM
CC(F)(F)CN1CCC(C(=O)Nc2cc3cc(-c4cnco4)cnc3cn2)CC1 [compound 642]		≥ 3000 nM	29.5%		9780 nM	> 10000 nM
